# Results as given in patent US20260355165A1, “2,3,4,9-TETRAHYDRO-1H-PYRIDO[3,4-B]INDOLE DERIVATIVES AS ESTROGEN RECEPTOR MODULATORS FOR THE TREATMENT OF CANCER” (Olema Pharmaceuticals, Inc., priority 2022, published 2026).
# Molecular target: T1, estrogen receptor (Homo sapiens, UniProt P03372)
# T1 construct: endogenous in cells; host or cells: ECC-1 cells
# T1 sequence (P03372 1-595): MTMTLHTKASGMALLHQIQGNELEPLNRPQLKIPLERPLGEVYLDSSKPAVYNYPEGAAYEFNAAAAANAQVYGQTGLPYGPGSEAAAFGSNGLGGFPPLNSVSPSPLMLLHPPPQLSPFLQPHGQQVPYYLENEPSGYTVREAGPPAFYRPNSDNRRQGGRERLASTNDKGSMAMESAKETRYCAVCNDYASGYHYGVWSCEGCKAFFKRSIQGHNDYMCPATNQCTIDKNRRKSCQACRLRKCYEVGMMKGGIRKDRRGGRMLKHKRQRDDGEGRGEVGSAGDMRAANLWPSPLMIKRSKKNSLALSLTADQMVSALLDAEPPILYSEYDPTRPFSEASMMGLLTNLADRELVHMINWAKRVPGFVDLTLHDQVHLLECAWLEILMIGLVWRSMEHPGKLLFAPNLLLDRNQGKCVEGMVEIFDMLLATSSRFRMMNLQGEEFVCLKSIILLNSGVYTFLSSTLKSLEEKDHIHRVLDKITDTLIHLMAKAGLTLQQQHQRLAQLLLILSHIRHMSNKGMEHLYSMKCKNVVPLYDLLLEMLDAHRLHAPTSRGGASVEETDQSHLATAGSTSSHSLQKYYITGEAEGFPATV
# Assay: AP assay (alkaline phosphatase activity in ECC-1 cells), agonist mode (absence of E2) and antagonist mode (presence of 500 pM E2)
# Type: cell-based
# Settings: 3 days, AP activity normalized to 500 pM E2 alone, agonist and antagonist mode combined
# Outline: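 Read-out is absorbance at 405 nm from p-nitrophenyl phosphate cleavage (40 min, 42 °C), expressed relative to 500 pM E2 alone. Compounds were applied to ECC-1 cells in hormone-depleted medium for 3 days, either alone (agonist) or alongside 500 pM E2 (antagonist).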
structure (smiles),measurement,value
"C[C@@H]1Cc2c([nH]c3ccccc23)[C@@H](c2c[nH]c3cc(CN4CC(CF)C4)ccc23)N1CC(C)(C)F [Compound I-5, (1R,3R)-1-[6-[[3-(fluoromethyl)azetidin-1-yl]methyl]-1H-indol-3-yl]-2-(2-fluoro-2-methyl-propyl)-3-methyl-1,3,4,9-tetrahydropyrido[3,4-b]indole]","Activity (estrogen receptor modulation, e.g., agonism and antagonism)",++ (estrogen receptor antagonism having (i) between 10% and 80% increase in the E2-normalized signal in the AP assay (agonist mode) and (ii) between 10% and 80% reduction in the E2-normalized signal in the AP assay (antagonist mode))
"C[C@@H]1Cc2c([nH]c3ccccc23)[C@@H](c2n[nH]c3cc(CN4CC[C@@H](CF)C4)ccc23)N1CC(C)(C)F [Compound I-24, (1S,3R)-2-(2-fluoro-2-methyl-propyl)-1-[6-[[(3R)-3-(fluoromethyl)pyrrolidin-1-yl]methyl]-1H-indazol-3-yl]-3-methyl-1,3,4,9-tetrahydropyrido[3,4-b]indole]","Activity (estrogen receptor modulation, e.g., agonism and antagonism)",+ (estrogen receptor agonism having (i) at least 80% increase in the E2-normalized signal in the AP assay (agonist mode) and (ii) no more than 80% reduction in the E2-normalized signal in the AP assay (antagonist mode))
"C[C@@H]1Cc2c([nH]c3ccccc23)[C@@H](c2ccc3[nH]c(CN4CC5(CCC5)C4)cc3c2)N1CC(C)(C)F [Compound I-44, (1R,3R)-1-[2-(2-azaspiro[3.3]heptan-2-ylmethyl)-1H-indol-5-yl]-2-(2-fluoro-2-methyl-propyl)-3-methyl-1,3,4,9-tetrahydropyrido[3,4-b]indole]","Activity (estrogen receptor modulation, e.g., agonism and antagonism)",++ (estrogen receptor antagonism having (i) between 10% and 80% increase in the E2-normalized signal in the AP assay (agonist mode) and (ii) between 10% and 80% reduction in the E2-normalized signal in the AP assay (antagonist mode))
"CCCN1CC(n2ncc3cc([C@@H]4c5[nH]c6ccccc6c5C[C@@H](C)N4CC(F)(F)CO)ccc32)C1 (racemic) [Compound I-105, 2,2-difluoro-3-[rac-(1R,3R)-3-methyl-1-[1-(1-propylazetidin-3-yl)indazol-5-yl]-1,3,4,9-tetrahydropyrido[3,4-b]indol-2-yl]propan-1-ol]","Activity (estrogen receptor modulation, e.g., agonism and antagonism)",++ (estrogen receptor antagonism having (i) between 10% and 80% increase in the E2-normalized signal in the AP assay (agonist mode) and (ii) between 10% and 80% reduction in the E2-normalized signal in the AP assay (antagonist mode))
"CCCN(C)Cc1ccc2c([C@@H]3c4[nH]c5ccccc5c4C[C@@H](C)N3CC(C)(C)F)c[nH]c2c1 [Compound I-7, N-[[3-[(1R,3R)-2-(2-fluoro-2-methyl-propyl)-3-methyl-1,3,4,9-tetrahydropyrido[3,4-b]indol-1-yl]-1H-indol-6-yl]methyl]-N-methyl-propan-1-amine]","Activity (estrogen receptor modulation, e.g., agonism and antagonism)",+ (estrogen receptor agonism having (i) at least 80% increase in the E2-normalized signal in the AP assay (agonist mode) and (ii) no more than 80% reduction in the E2-normalized signal in the AP assay (antagonist mode))
"C[C@@H]1Cc2c([nH]c3ccccc23)[C@@H](c2c[nH]c3cc(CN4CC(CF)C4)ccc23)N1CC(F)(F)CO [Compound I-15, 2,2-difluoro-3-[(1R,3R)-1-[6-[[3-(fluoromethyl)azetidin-1-yl]methyl]-1H-indol-3-yl]-3-methyl-1,3,4,9-tetrahydropyrido[3,4-b]indol-2-yl]propan-1-ol]","Activity (estrogen receptor modulation, e.g., agonism and antagonism)",++ (estrogen receptor antagonism having (i) between 10% and 80% increase in the E2-normalized signal in the AP assay (agonist mode) and (ii) between 10% and 80% reduction in the E2-normalized signal in the AP assay (antagonist mode))
"C[C@@H]1Cc2c([nH]c3ccccc23)[C@@H](c2ccc3[nH]c(CN4CC(F)C4)cc3c2)N1CC(C)(C)F [Compound I-90, (1R,3R)-1-[2-[(3-fluoroazetidin-1-yl)methyl]-1H-indol-5-yl]-2-(2-fluoro-2-methyl-propyl)-3-methyl-1,3,4,9-tetrahydropyrido[3,4-b]indole]","Activity (estrogen receptor modulation, e.g., agonism and antagonism)",+ (estrogen receptor agonism having (i) at least 80% increase in the E2-normalized signal in the AP assay (agonist mode) and (ii) no more than 80% reduction in the E2-normalized signal in the AP assay (antagonist mode))
"COCC1CN(Cc2cc3cc([C@@H]4c5[nH]c6ccccc6c5C[C@@H](C)N4CC(C)(C)F)ccc3[nH]2)C1 [Compound I-51, (1R,3R)-2-(2-fluoro-2-methyl-propyl)-1-[2-[[3-(methoxymethyl)azetidin-1-yl]methyl]-1H-indol-5-yl]-3-methyl-1,3,4,9-tetrahydropyrido[3,4-b]indole]","Activity (estrogen receptor modulation, e.g., agonism and antagonism)",+ (estrogen receptor agonism having (i) at least 80% increase in the E2-normalized signal in the AP assay (agonist mode) and (ii) no more than 80% reduction in the E2-normalized signal in the AP assay (antagonist mode))
"C[C@@H]1Cc2c([nH]c3ccccc23)[C@@H](c2ccc3[nH]c(CN4CC(C(C)(C)O)C4)cc3c2)N1CC(C)(C)F [Compound I-48, 2-[1-[[5-[(1R,3R)-2-(2-fluoro-2-methyl-propyl)-3-methyl-1,3,4,9-tetrahydropyrido[3,4-b]indol-1-yl]-1H-indol-2-yl]methyl]azetidin-3-yl]propan-2-ol]","Activity (estrogen receptor modulation, e.g., agonism and antagonism)",+ (estrogen receptor agonism having (i) at least 80% increase in the E2-normalized signal in the AP assay (agonist mode) and (ii) no more than 80% reduction in the E2-normalized signal in the AP assay (antagonist mode))
"CC1CN(Cc2ccc3c([C@@H]4c5[nH]c6ccccc6c5C[C@@H](C)N4CC(C)(C)F)n[nH]c3c2)C1 [Compound I-11, (1S,3R)-2-(2-fluoro-2-methyl-propyl)-3-methyl-1-[6-[(3-methylazetidin-1-yl)methyl]-1H-indazol-3-yl]-1,3,4,9-tetrahydropyrido[3,4-b]indole]","Activity (estrogen receptor modulation, e.g., agonism and antagonism)",++ (estrogen receptor antagonism having (i) between 10% and 80% increase in the E2-normalized signal in the AP assay (agonist mode) and (ii) between 10% and 80% reduction in the E2-normalized signal in the AP assay (antagonist mode))
"C[C@@H]1Cc2c([nH]c3ccccc23)[C@@H](c2n[nH]c3cc(CN(C)CCCF)ccc23)N1CC(C)(C)F [Compound I-12, 3-fluoro-N-[[3-[(1S,3R)-2-(2-fluoro-2-methyl-propyl)-3-methyl-1,3,4,9-tetrahydropyrido[3,4-b]indol-1-yl]-1H-indazol-6-yl]methyl]-N-methyl-propan-1-amine]","Activity (estrogen receptor modulation, e.g., agonism and antagonism)",+ (estrogen receptor agonism having (i) at least 80% increase in the E2-normalized signal in the AP assay (agonist mode) and (ii) no more than 80% reduction in the E2-normalized signal in the AP assay (antagonist mode))
"C[C@@H]1Cc2c([nH]c3ccccc23)[C@@H](c2cnc3[nH]c(CN4CC(CF)C4)cc3c2)N1CC(C)(C)F [Compound I-69, (1R,3R)-1-[2-[[3-(fluoromethyl)azetidin-1-yl]methyl]-1H-pyrrolo[2,3-b]pyridin-5-yl]-2-(2-fluoro-2-methyl-propyl)-3-methyl-1,3,4,9-tetrahydropyrido[3,4-b]indole]","Activity (estrogen receptor modulation, e.g., agonism and antagonism)",++ (estrogen receptor antagonism having (i) between 10% and 80% increase in the E2-normalized signal in the AP assay (agonist mode) and (ii) between 10% and 80% reduction in the E2-normalized signal in the AP assay (antagonist mode))
"CCC1CN(Cc2cc3cc([C@@H]4c5[nH]c6ccccc6c5C[C@@H](C)N4CC(C)(C)F)ccc3[nH]2)C1 [Compound I-91, (1R,3R)-1-[2-[(3-ethylazetidin-1-yl)methyl]-1H-indol-5-yl]-2-(2-fluoro-2-methyl-propyl)-3-methyl-1,3,4,9-tetrahydropyrido[3,4-b]indole]","Activity (estrogen receptor modulation, e.g., agonism and antagonism)",+ (estrogen receptor agonism having (i) at least 80% increase in the E2-normalized signal in the AP assay (agonist mode) and (ii) no more than 80% reduction in the E2-normalized signal in the AP assay (antagonist mode))
"C[C@@H]1Cc2c([nH]c3ccccc23)[C@@H](c2c[nH]c3cc(CN(C)CCCF)ccc23)N1CC(C)(C)F [Compound I-9, 3-fluoro-N-[[3-[(1R,3R)-2-(2-fluoro-2-methyl-propyl)-3-methyl-1,3,4,9-tetrahydropyrido[3,4-b]indol-1-yl]-1H-indol-6-yl]methyl]-N-methyl-propan-1-amine]","Activity (estrogen receptor modulation, e.g., agonism and antagonism)",+ (estrogen receptor agonism having (i) at least 80% increase in the E2-normalized signal in the AP assay (agonist mode) and (ii) no more than 80% reduction in the E2-normalized signal in the AP assay (antagonist mode))
"CC1CN(Cc2cc3sc([C@@H]4c5[nH]c6ccccc6c5C[C@@H](C)N4CC(C)(C)F)cc3[nH]2)C1 [Compound I-66, 2-[(1S,3R)-2-(2-fluoro-2-methyl-propyl)-3-methyl-1,3,4,9-tetrahydropyrido[3,4-b]indol-1-yl]-5-[(3-methylazetidin-1-yl)methyl]-4H-thieno[3,2-b]pyrrole]","Activity (estrogen receptor modulation, e.g., agonism and antagonism)",+ (estrogen receptor agonism having (i) at least 80% increase in the E2-normalized signal in the AP assay (agonist mode) and (ii) no more than 80% reduction in the E2-normalized signal in the AP assay (antagonist mode))
